Experimental data from patent US9732101B2, “Bioreversible boronates for delivery of molecules into cells” (WISCONSIN ALUMNI RESEARCH FOUNDATION, priority 2012, dated 2017).
Where two headings read alike, the source gives them in different places.

What was measured:
[1] = Ka of boronic acids for saccharides by 1H NMR (H2O containing 2% D2O); assay type: binding; conditions: 1H NMR in H2O containing D2O (2% v/v); 0.10M sodium phosphate buffer, pH 7.4; this work
Protocol: (§1) Methodology to determine the values of Ka for boronic acids and saccharides was adapted from work by Hall and coworkers. [13a, 13b]
(§2) A boronic acid (B) and a saccharide (S) were assumed to bind in one modality, B·S:
(§3) The [B·S]/[B] ratio was determined by the integration of aryl protons of the boronic acid.saccharide complex and the free boronic acid. The individual [B], [B·S], and [S] can be calculated from eq. 1-3.
(§4) Each value of Ka arose from at least two independent experiments with freshly prepared solutions, and each experiment consisted of a titration with 6-9 different concentrations.
(§5) All NMR spectra were analyzed with Topspin 3.0 software from Bruker AXS. NMR experiments were done in a 0.10 M NaH2PO4 buffer, pH 7.4, containing D2O (2% v/v). ^1H NMR experiments consisted of the first increment of a 2D NOSY with gradients for improved water suppression. […]
To a 25-mL volumetric flask, D-glucose (2.25 g, 12.5 mmol) and ˜20 mL of solution 1 was added. […] The [B·S]/[B] ratio was determined as depicted in FIG. 15. A value for Ka was calculated for every concentration as described above.
To a 25-mL volumetric flask, D-glucose (2.25 g, 12.5 mmol) and ˜20 mL of solution 2 was added. […] The [B·S]/[B] ratio was determined as depicted in FIG. 16. […] A value for Ka was calculated for every concentration as described above.

[2] = 1H NMR in D2O (100% v/v); 0.10M sodium phosphate buffer, pH 7.4; ref [c]; cited from earlier work
[3] = Ka of boronic acids for saccharides by 1H NMR (H2O containing 2% D2O); assay type: binding; conditions: 1H NMR in H2O containing D2O (2% v/v); 0.10M sodium phosphate buffer, pH 7.4; this work; remark: listed apart in the source
Protocol: as §1, §2, §3, §4, §5
To a […] volumetric flask, Neu5Ac (1.53 g, 5.0 mmol) and ˜20 mL of solution 1 was added. […] The [B·S]/[B] ratio was determined as depicted in FIG. 17. A value for Ka was calculated for every concentration as described above.
To a […] volumetric flask, Neu5Ac (1.56 g, […]) and ˜20 mL of solution 2 was added. […] The Ka value was calculated for every concentration as previously described. The [B·S]/[B] ratio was determined as illustrated in FIGS. 18 and 19. […] A value for Ka was calculated for every concentration as described above.

[4] = Competition with alizarin red S; 0.10M sodium phosphate buffer, pH 7.4; refs [b], [e]; cited from earlier work
[5] = Ka of boronic acids for saccharides by 1H NMR (H2O containing 2% D2O); assay type: binding; conditions: 1H NMR in H2O containing D2O (2% v/v), 0.10M sodium phosphate buffer, pH 7.4, this work
Protocol: as §1, §2, §3, §4
All NMR spectra were analyzed with Topspin 3.0 software from Bruker AXS. NMR experiments were done in a 0.10 M NaH2PO4 buffer, pH 7.4, containing D2O (2% v/v). ^1H NMR experiments consisted of the first increment of a 2D NOSY with gradients for improved water suppression.
A. Representative Procedure for Making a Phenylboronic Acid Solution NaH2PO4 (3.0 g, 25 mmol) and PBA (phenylboronic acid, 458 mg, 3.75 mmol) were dissolved in distilled, deionized water in a volumetric flask (˜200 mL H2O, 5 mL D2O). The pH was adjusted carefully to 7.4 using 10 M NaOH, and additional water was added for a final volume of 250 mL. Final solutions were 15 mM in the boronic acid (PBA=solution 1; benzoboroxole=solution 2) in 0.10 M sodium phosphate monobasic buffer, pH 7.4, containing D2O (2% v/v).
To a 25-mL volumetric flask, D-fructose (674 mg, 3.75 mmol) and ˜20 mL of solution 1 was added. The solution was adjusted carefully to pH 7.4 by the addition of 10 M NaOH. (The volume of added NaOH was used in the calculation of the boronic acid concentration.) The volume was then increased to 25 mL by adding solution 1. […] The [B·S]/[B] ratio was determined for every concentration as follows. […]
To a 25-mL volumetric flask, D-fructose (674 mg, 3.75 mmol) and ˜20 mL of solution 2 was added. […] The [B·S]/[B] ratio was determined as depicted in FIG. 14. A value for Ka was calculated for every concentration as described above.

[6] = 1H NMR in D2O (100% v/v); 0.10M sodium phosphate buffer, pH 7.4; ref [c]; cited from earlier work; remark: listed apart in the source
[7] = ref 13b; cited from earlier work
[8] = Competition with alizarin red S; 0.10M sodium phosphate buffer, pH 7.4; ref [b]; cited from earlier work
[9] = 11B NMR in H2O/D2O/MeOH mixture; ref [d]; cited from earlier work
[10] = Competition with alizarin red S; 0.10M sodium phosphate buffer, pH 7.4; ref [b]; cited from earlier work; remark: listed apart in the source

Structure (SMILES): OCc1ccccc1B(O)O [Benzoboroxole, 2-hydroxymethylphenylboronic acid]
- Ka for D-glucose [1]: 28 ± 4 M⁻¹
- Ka for D-fructose [2]: 606 M⁻¹
- Ka for Neu5Ac [3]: 43 ± 5 M⁻¹
- Ka for D-glucose [4]: 31 M⁻¹
- Ka for D-fructose [5]: 336 ± 43 M⁻¹
- Ka for D-fructose ([5]; listed as benzoxaborole): 336 M⁻¹
- Ka for D-glucose [6]: 17 M⁻¹
- pKa of the HOB [7]: 7.2

Structure (SMILES): OB(O)c1ccccc1 [PBA, Phenylboronic acid]
- Ka for D-glucose [1]: 5 ± 1 M⁻¹
- Ka for Neu5Ac [8]: 21 M⁻¹
- Ka for Neu5Ac [9]: 11.6 ± 1.9 M⁻¹
- Ka for D-fructose [2]: 79 M⁻¹
- Ka for Neu5Ac [3]: 13 ± 1 M⁻¹
- Ka for D-glucose [4]: 4.6 M⁻¹
- Ka for D-fructose [10]: 160 M⁻¹
- Ka for D-fructose [5]: 128 ± 20 M⁻¹
- Ka for D-glucose [6]: 0 M⁻¹
